Here are results for two compounds from patent publication US20030092640A1, “Azalide antibiotic compositions” (Pfizer Inc., priority 2001, published 2003).

One may read the MIC as the lowest concentration found to suppress growth.

Values after ≈ are worked out from the molar mass of the structure shown. Values joined by “and” are separate entries in the source; they are usually repeats but may differ in a detail not shown here. Identical values can stand only once.

For one data set, the system named is E. coli. Kind of data set: Assay I liquid dilution MIC, E. coli. The format is cell-based. The note with it: Escherichia coli, 18 h, read-out: MIC against E. coli.
Another data set has as its system S. aureus. Kind of data set: Assay I liquid dilution MIC, S. aureus. The format is cell-based. The settings on record: Staphylococcus aureus, 18 h, read-out: MIC against S. aureus.
Data set [1] in a line: Potency retention (HPLC stability) of azalide in aqueous propylene glycol/citric acid compositions. The settings on record: 0.1 M citric acid. The format is physicochemical. Here is the method:
As used in this application, the term “potency” means the amount of an azalide compound present in a “test” sample subjected to a particular set of experimental conditions during a particular time interval, relative to the amount of the azalide compound present in an otherwise identical “control” sample stored at 5° C. for the same time interval. Upon completion of the experiment for a given sample, the test and control samples are typically subjected to appropriate processing steps to allow accurate determination of the amount of the azalide compound. Relative amounts of azalide compound in the test and control samples may be determined by any number of means which are well-known in the art, such as high performance liquid chromatography (“HPLC”), nuclear magnetic resonance spectroscopy (“NMR”), gas chromatography (“GC”), mass spectrometry (“MS”), liquid chromatography/mass spectrometry (“LC/MS”), GC/MS, and thin layer chromatography (“TLC”).
Preferred methods for determining that a stable azalide composition has been obtained include gel chromatography, thin-layer chromatography, and HPLC. More preferably, HPLC is used. To monitor the compositions of the invention for potency, after dilution to final volume and sterilization by filtration, the compositions were subdivided into 3.5 mL glass vials which were sealed with rubber stoppers and an aluminum crimp. For the tests reported below, approximately 10 vials containing 2.5 mL each were prepared.
Approximately 30 mL of each composition listed in Table 1 below was prepared as follows:
1) Sufficient citric acid was added to Water for Injection to produce a solution having a final concentration of acid of 0.1 M;
2) The compound of formula 1a or 1b was added in an amount to produce a final azalide concentration of 100 mg/mL (0.12 mmol/mL of the composition), and the mixture was stirred until the azalide was dissolved;
3) Propylene glycol was added to produce a concentration in the final mixture of from about 25% to about 75% by weight relative to the total volume;
4) The pH was adjusted by addition of 10% aqueous HCl or 10 M aqueous NaOH as necessary;
5) Water for Injection was added to bring the volume to 30 mL;
6) Each sample was subdivided by filtration through a 0.22 micron Millex GV filter into 3.5 mL glass vials which were each sealed with a rubber stopper and an overseal consisting of an aluminum crimp. Approximately 10 vials containing 2.5 mL each were prepared for each sample.
To monitor the stability of the azalide compositions, vials were assayed by HPLC after exposure to elevated temperatures for a period of time. Aliquots were removed from vials and diluted with a mixture of 15% 10 mM potassium phosphate buffer, pH 6.5, 85% 1:1 (v/v) acetonitrile:methanol to a concentration of approximately 1.0 mg of the compound of formula 1 per mL total sample volume. Diluted samples were subjected to chromatography in a Waters Alliance 2690 HPLC system having a 2487 UV detector. The column was a Waters Symmetry C-18, 5 micron (250×4.6 mm), the mobile phase was the same as the phosphate/acetonitrile/methanol diluent above and the flow rate was 1 mL/minute. Peaks were detected by monitoring ultraviolet absorption at 210 nm. Relative amounts of azalide compound in the experimental samples and the controls were determined by taking the ratio of their relative chromatogram-peak areas. Although HPLC was used in this experiment, other known methods, including NMR, GC, MS, LC/MS, GC/MS, and TLC can be used to evaluate the potency of the compound of formula 1.
The results are reported in Table 1 below as a percentage of the compound of formula 1 remaining after exposure to various temperature and duration conditions, relative to the amount of the compound present in an otherwise identical sample stored at 5° C. for the same time interval.

For data set [2], the system named is Pasteurella multocida (strain 59A067). The experiment in a line: Assay I liquid dilution MIC, P. multocida. The class given is cell-based. The note with it: 100% inhibition of growth, 37° C., 18 hours, BHI broth, read-out: MIC against P. multocida. Here is the method: This assay employs conventional methodology and interpretation criteria and is designed to test for activity against Pasteurella multocida, using the liquid dilution method in microliter format. A single colony of P. multocida (strain 59A067) is inoculated into 5 mL of brain heart infusion (BHI) broth. The azalide formulation is prepared by solubilizing 1 mg of the azalide composition in 125 μL of dimethylsulfoxide (DMSO). Dilutions of the azalide compositions are prepared using uninoculated BHI broth. The concentrations of the azalide compounds used range from 200 μg/mL to 0.098 μg/mL by two-fold serial dilutions. The P. multocida inoculated BHI is diluted with uninoculated BHI broth to make a 10^4 cell suspension per 200 μL. The BHI cell suspensions are mixed with respective serial dilutions of the azalide compositions, and incubated at 37° C. for 18 hours.
Accordingly, as expected, the azalide compounds used in this invention are active against a variety of organisms.

[3] abbreviates: preparation 1: propylene glycol 50 w/v %, pH 4.5, 100 mg/mL azalide.
Setting [4] is: preparation 2: propylene glycol 25 w/v %, pH 5.0, 100 mg/mL azalide.
[5] abbreviates: preparation 3: propylene glycol 75 w/v %, pH 5.0, 100 mg/mL azalide.
[6] abbreviates: preparation 7: propylene glycol 25 w/v %, pH 6.0, 100 mg/mL azalide.
Where [7] appears, read: preparation 8: propylene glycol 75 w/v %, pH 6.0, 100 mg/mL azalide.
Where [8] appears, read: preparation 9: propylene glycol 50 w/v %, pH 6.5, 100 mg/mL azalide.
[9] abbreviates: preparations 4, 5, 6: propylene glycol 50 w/v %, pH 5.5, 100 mg/mL azalide.

Consider `CC[C@H]1OC(=O)[C@H](C)[C@@H](O[C@H]2C[C@@](C)(OC)[C@](O)(CNC(C)C)[C@H](C)O2)[C@H](C)[C@@H](O[C@@H]2O[C@H](C)C[C@H](N(C)C)[C@H]2O)[C@](C)(O)C[C@@H](C)CN(C)[C@H](C)[C@@H](O)[C@]1(C)O` [Compound 1a, 1-Oxa-6-azacyclopentadecan-15-one, 13-[[2,6-dideoxy-3-C-methyl-3-O-methyl-4-C-[[(1-methylethyl)amino]methyl]-α-L-ribo-hexopyranosyl]oxy]-2-ethyl-3,4,10-trihydroxy-3,5,6,8,10,12,14-heptamethyl-11-[[3,4,6-trideoxy-3-(dimethylamino)-β-D-xylo-hexopyranosyl]oxy]-, (2R,3S,4R,5R,8R,10R,11R,12S,13S,14R)-], for which the MIC with E. coli came out at 0.39 mg/L (≈ 0.476 µM); with S. aureus, 0.2 mg/L (≈ 0.244 µM); in data set [2] it was 0.05 mg/L (≈ 0.061 µM). Besides, the “Potency (% of 5° C.) 6 weeks, 50° C.” value in data set [1] (setting [3]) stood at 91.9%; in data set [1] (setting [4]), 93.6%; in data set [1] (setting [5]) it was 96.0%; in data set [1] (setting [6]) it was 90.6%; in data set [1] (setting [7]), 89.5%; in data set [1] (setting [8]), 84.1%. Besides, in data set [1] (setting [9]), the “Potency (% of 5° C.) 6 weeks, 50° C.” value is 96.3% and 95.6% and 93.9%. For the same compound, the “Potency (% of 5° C.) 12 weeks, 50° C.” value is recorded as 91.3% in data set [1] (setting [3]); 87.9% in data set [1] (setting [4]); 102.6% in data set [1] (setting [5]); 85.7% in data set [1] (setting [6]); 89.8% in data set [1] (setting [7]); 75.9% in data set [1] (setting [8]). Also, the “Potency (% of 5° C.) 12 weeks, 50° C.” value in data set [1] (setting [9]) was 92.9% and 91.4% and 90.4%.
Take `CC[C@H]1OC(=O)[C@H](C)[C@@H](O[C@H]2C[C@@](C)(OC)[C@](O)(CN(C)CC)[C@H](C)O2)[C@H](C)[C@@H](O[C@@H]2O[C@H](C)C[C@H](N(C)C)[C@H]2O)[C@](C)(O)C[C@@H](C)CN(C)[C@H](C)[C@@H](O)[C@]1(C)O` [Compound 1b, 1-Oxa-6-azacyclopentadecan-15-one, 13-[[2,6-dideoxy-4-C-[(ethylmethylamino)methyl]-3-C-methyl-3-O-methyl-α-L-ribo-hexopyranosyl]oxy]-2-ethyl-3,4,10-trihydroxy-3,5,6,8,10,12,14-heptamethyl-11-[[3,4,6-trideoxy-3-(dimethylamino)-β-D-xylo-hexopyranosyl]oxy]-, (2R,3S,4R,5R,8R,10R,11R,12S,13S,14R)-]: the figures for the MIC (in the data set on E. coli; in the data set on S. aureus; in data set [2]) were 0.39 mg/L (≈ 0.476 µM), 0.39 mg/L (≈ 0.476 µM) and 0.05 mg/L (≈ 0.061 µM), respectively. The “Potency (% of 5° C.) 6 weeks, 50° C.” value in data set [1] (setting [3]) was found to be 96.1%; in data set [1] (setting [4]), 96.5%; in data set [1] (setting [5]) it was 98.8%; in data set [1] (setting [6]), 90.0%; in data set [1] (setting [7]), 93.8%; in data set [1] (setting [8]), 86.5%. Besides, the “Potency (% of 5° C.) 6 weeks, 50° C.” value in data set [1] (setting [9]) was 94.9% and 93.0% and 93.3%. For the same compound, the “Potency (% of 5° C.) 12 weeks, 50° C.” value in data set [1] (setting [3]) is 92.1%; in data set [1] (setting [4]), 92.4%; in data set [1] (setting [5]), 96.1%; in data set [1] (setting [6]), 81.5%; in data set [1] (setting [7]) it was 94.0%; in data set [1] (setting [8]), 76.5%. Also, the “Potency (% of 5° C.) 12 weeks, 50° C.” value in data set [1] (setting [9]) was 91.8% and 96.1% and 95.3%.
